In brackets after ≈: the same amount, converted by molar mass. Where two headings read alike, the source gives them in different places. Some results are limits rather than exact numbers.

Data set [1] in a line: Aqueous thermodynamic solubility, shake-flask. It is filed as physicochemical. The note with it: aqueous phosphate buffer, 25 °C, pH 7.4, aqueous buffer, thermodynamic from solid, phosphate buffer 0.1 M, pH 7.4, 24 hours. In short, it runs like this: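 After 24 h stirring at 25° C. in pH 7.4 phosphate buffer (0.1 M), solid-free supernatant from two centrifugations was quantified by UPLC/MS/MS after dilution in water. Compound was added as dried material after DMSO removal.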

A short description of data set [2]: CLint assessment in human liver microsomes (HLM). It is filed as in vitro ADME. The note with it: 1 μM. In outline: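 Microsomes preincubated 8 min with NADPH, then compound added and incubated 30 min at 37° C. Remaining compound measured by LC-MS/MS. t1/2 and CLint calculated, with CLint scaled to incubation volume per mg microsomal protein.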
A general note: Liver microsomes are a subcellular fraction often used to study metabolism.

Data set [3] is described as follows: CLint assessment in human hepatocytes (HH). It is filed as in vitro ADME. Also on record: unit not given here. The note with it: pH 7.4. Here is the method: Samples were shaken at 800 rpm for 2 minutes and centrifuged at 4000 rpm for 20 minutes at 4° C. to pellet precipitated protein. The supernatant fraction was diluted 1:5 with deionized water, shaken at 1000 rpm for 2 minutes, and further diluted 1:1 with deionized water. Samples were analyzed by LC-MS/MS.

Data set [4] relates to OVCAR3 cells. Nature of the data set: Cellular proliferation EdU assay, OVCAR3. It is filed as cell-based, human. The note with it: Homo sapiens, OVCAR-3, 48 h, EdU assay, two days; read-out: OVCAR3 IC50. In short, it runs like this:
(§1)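 MCF-7 (800 cells/well) and OVCAR3 (1200 cells/well) in RPMI with 10% FBS exposed to compounds for two days at 37 °C.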

Data set [5] deals with POLR2A Ser2 phosphorylation (CDK9). Nature of the data set: POLR2A Ser2 phosphorylation imaging assay in MCF-7 cells. The note with it: Homo sapiens, MCF7, 2 h, read-out: POLR2A Ser2 phosphorylation IC50. It is filed as cell-based. In outline: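 MCF-7 cells were fixed, permeabilised and immunostained for POLR2A phospho-Ser2, then imaged by high-content microscopy. Levels were normalised to controls and IC50 values derived.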

For a further data set, the target named is CDK1:CCNB1 (Homo sapiens (Human), UniProt P06493). Briefly: NanoBRET assay in MCF-7 cells, CDK1. It is filed as cell-based. The note with it: NanoBRET, transfected MCF-7 cells, 2 hours; n = 1 or average; read-out: CDK1 IC50. In short, it runs like this:
(§2)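 Intracellular target engagement was measured by NanoBRET ratio (460 nm/610 nm) in live MCF-7 cells transiently carrying CDK4:CCND1 (Tracer K-7, 100 μM stock) or CDK1:CCNB1 (Tracer K-9, 400 μM stock).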

The next data set has as its system MCF-7 cells. Nature of the data set: Cellular proliferation EdU assay, MCF-7. It is filed as cell-based. The note with it: Homo sapiens, MCF7, 48 h, EdU assay, two days; read-out: MCF-7 IC50. In outline:
as §1

A further data set has as its target CDK2:CCNE1 (Homo sapiens (Human), UniProt P24941). Briefly: NanoBRET assay in MCF-7 cells, CDK2. It is filed as cell-based. The note with it: transfected MCF-7 cells, 2 hours, n = 1 or average. In short, it runs like this:
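In live MCF-7 cells, compound added followed by NanoBRET TE Tracer K-9 (stock 200 μM) for CDK2, 2 h at 37° C, 5% CO2.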
A general note: Bioluminescence resonance energy transfer reports proximity on the nanometre scale.

The target in a further data set is CDK4:CCND1 (Homo sapiens (Human), UniProt P11802). Briefly: NanoBRET assay in MCF-7 cells, CDK4. It is filed as cell-based. The note with it: NanoBRET, transfected MCF-7 cells, 2 hours; n = 1 or average; read-out: CDK4 IC50. In short, it runs like this: as §2
CDK4:CCND1, sequence (P11802 whole entry): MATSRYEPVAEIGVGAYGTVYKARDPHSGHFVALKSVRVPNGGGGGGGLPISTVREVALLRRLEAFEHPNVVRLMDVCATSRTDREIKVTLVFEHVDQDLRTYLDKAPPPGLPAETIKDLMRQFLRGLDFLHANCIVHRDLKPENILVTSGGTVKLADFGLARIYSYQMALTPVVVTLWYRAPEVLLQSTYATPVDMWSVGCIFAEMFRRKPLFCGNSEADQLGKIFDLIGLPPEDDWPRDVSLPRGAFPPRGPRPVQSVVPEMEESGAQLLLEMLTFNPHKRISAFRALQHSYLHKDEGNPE
CDK4:CCND1, sequence (P24385 whole entry partner): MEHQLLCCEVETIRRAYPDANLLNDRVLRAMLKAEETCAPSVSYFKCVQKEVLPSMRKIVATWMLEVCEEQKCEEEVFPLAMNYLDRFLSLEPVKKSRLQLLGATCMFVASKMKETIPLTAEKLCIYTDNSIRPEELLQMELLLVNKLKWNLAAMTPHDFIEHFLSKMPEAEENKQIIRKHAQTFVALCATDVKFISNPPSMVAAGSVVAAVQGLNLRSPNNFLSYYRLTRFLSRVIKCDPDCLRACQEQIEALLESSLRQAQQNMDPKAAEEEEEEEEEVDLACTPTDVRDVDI
Data set [6] concerns NPM phosphorylation (Thr199, CDK2-cyclin E complex). Briefly: NPM phosphorylation imaging assay in MCF-7 cells. It is filed as cell-based. The note with it: Homo sapiens, MCF7, 2 hours, 4N DNA cells. In short, it runs like this: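 MCF-7 cells were fixed, permeabilised and immunostained, then imaged for phospho-NPM (Thr199), a CDK2-cyclin E site. Analysis was gated on 4N-DNA cells by Hoechst staining. Signals were normalised to controls and fitted for IC50.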

Data set [7] has as its system pRB (S780) in CTG-3283 human CDK4/6 resistant ER+ breast cancer xenograft. Nature of the data set: Pharmacodynamic effect (pRB) in CTG-3283 xenograft model. The note with it: 3 days dosing, Western blot. (Immunoblotting shows a protein as a band on a membrane.)
Description: A study was conducted to evaluate the in vivo pharmacodynamic response of monotherapy with a CDK2 inhibitor and combination therapy with a CDK2 inhibitor and palbociclib in a CTG-3283 human CDK4/6 resistant ER+ breast cancer xenograft model.
CTG-3283 fragments were implanted adjacent to the #3 mammory fat pad of female NSG mice. […] Mice were treated for 3 days with vehicle (0.5% HPMC/0.1% Tween 80), palbociclib at 50 mg/kg, test compound at 30 or 60 mg/kg, or the combination of test compound and palbociclib. Test compound was dosed orally twice daily 10 hours apart on day one and two and a single dose in the morning on day 3. Palbociclib was dosed orally once daily. When administered in combination with test compound, palbociclib was dosed 4 hours after the morning dose of test compound on days one and two and 15 minutes after the morning dose of test compound on day 3. The time course of sample collection was as follows: (i) the test compound at 30 mg/kg groups with and without palbociclib treatment were collected at 2, 4, and 8 hours; (ii) all other groups were collected at 2, 8, and 24 hours. pRB (S780) was evaluated by western blotting.
The test system of data set [8] is OVCAR3 human ovarian cancer xenograft. Nature of the data set: Anti-tumor effect in CCNE1 amplified ovarian xenograft model OVCAR3. It is filed as in vivo, mice. The note with it: for % INHIBITION: 28 days. On the procedure:
15 Million OVCAR3 human ovarian cells were implanted subcutaneously in the right flank of female CB17 SCID mice. Mice were randomized into groups of 8 when average tumor volume reached approximately 160 mm^3. […] Palbociclib was dosed orally once daily.

In data set [9] the test system is OVCAR3 cells. Nature of the data set: Effect on cell cycle in OVCAR3 cell line (flow cytometry). It is filed as cell-based, human. The note with it: 20 to 24 hours, 0.03, 0.1, 0.3, 1, and 3 μM. On the procedure: Compounds were tested in the CCNE1-amplified ovarian cell line OVCAR3 to assess their effect on cell cycle phases G1 and S and potential off-target effects on cell cycle phases G2 and M.
OVCAR3 cells were seeded at 60,000 cells per well in 24 well plates, 4 wells per sample, in RPMI with 10% Fetal bovine serum. Test compounds were diluted in 96 well plates in dimethyl sulfoxide (DMSO) and then added to the wells containing the cells. The 24 well plates were placed in an incubator maintained at 37° C. and 5% CO2 and incubated for 20 to 24 hours. The next day an EdU assay was performed following the manufacturer's protocol (Thermo Fisher, C10425 EdU Alexa Fluor 488). Antibody staining was carried out using PE Mouse Anti-Cleaved PARP (BD Biosciences Catalog No. 552933) and 4′,6-diamidino-2-phenylindole (DAPI). Cells were then analyzed by flow cytometry.

For data set [10], the system named is CTG-3283 human CDK4/6 resistant ER+ breast cancer xenograft. Briefly: Anti-tumor effect in CTG-3283 CDK4/6 resistant ER+ breast cancer xenograft model. The note with it: for % INHIBITION (end of dosing): 28 days. It is filed as in vivo, mice. On the procedure: CTG-3283 ER+ breast xenograft tumors were harvested from donor mice and cut into fragments approximately 50 mm^3 in volume and then reimplanted adjacent to the #3 mammary fat pad.
CTG-3283 ER+ Breast PDX fragments were implanted orthotopically adjacent to the #3 mammary fat pad using a 10-gauge trocar in female NSG mice. […] Palbociclib was dosed orally once daily.

Data set [11] deals with pRB (S780) in CTG-3298 human CDK4/6 resistant ER+ breast cancer xenograft. Briefly: Pharmacodynamic effect (pRB) in CTG-3298 xenograft model. The note with it: 3 days dosing, Western blot.
Description: A study was conducted to evaluate the in vivo pharmacodynamic response of monotherapy with a CDK2 inhibitor and combination therapy with a CDK2 inhibitor and palbociclib in a CTG-3298 human CDK4/6 resistant ER+ breast cancer xenograft model.
CTG-3298 fragments were implanted adjacent to the #3 mammory fat pad of female NSG mice. […] Mice were treated for 3 days with vehicle (0.5% HPMC/0.1% Tween 80), palbociclib at 50 mg/kg, test compound at 30 or 60 mg/kg, or the combination of test compound and palbociclib. Test compound was dosed orally twice daily 10 hours apart on day one and two and a single dose in the morning on day 3. Palbociclib was dosed orally once daily. When administered in combination with test compound, palbociclib was dosed 4 hours after the morning dose of test compound on days one and two and 15 minutes after the morning dose of test compound on day 3. The time course of sample collection was as follows: (i) the test compound at 30 mg/kg groups with and without palbociclib treatment were collected at 2, 4 and 8 hours; (ii) all other groups were collected at 2, 8, and 24 hours. pRB (S780) was evaluated by western blotting.
Data set [12] has as its system CTG-3298 human CDK4/6 resistant ER+ breast cancer xenograft. Briefly: Anti-tumor effect in CTG-3298 CDK4/6 resistant ER+ breast cancer xenograft model. It is filed as in vivo, mice. The note with it: for % INHIBITION (end of dosing): 28 days. Here is the method:
CTG-3298 ER+ breast xenograft tumors were harvested from donor mice and cut into fragments approximately 50 mm^3 in volume and then reimplanted adjacent to the #3 mammary fat pad.
CTG-3298 ER+ Breast PDX fragments were implanted orthotopically adjacent to the #3 mammary fat pad using a 10-gauge trocar in female NSG mice. […] Palbociclib was dosed orally once daily.

Data set [13] relates to pRB (S780) in MCF7-PC1 human palbociclib resistant ER+ breast cancer xenograft. Nature of the data set: Pharmacodynamic effect (pRB) in MCF7-PC1 palbociclib resistant ER+ breast cancer xenograft model. It is filed as in vivo, mice. The note with it: 3 days dosing, Western blot. On the procedure:
MCF7-PC1 cells were generated as described in Example 70.
Palbociclib was dosed orally once daily.

Data set [14] concerns pRB (S780) in OVCAR3 human ovarian cancer xenograft. Briefly: Pharmacodynamic effect (pRB) in OVCAR3 xenograft model. The note with it: 3 days dosing, Western blot. It is filed as in vivo, mice. On the procedure: 15 Million OVCAR3 human ovarian cells were implanted subcutaneously in the right flank of female CB17 SCID mice. […] Palbociclib was dosed orally once daily.
Data set [15] has as its system OVCAR3 cells. Briefly: Cell proliferation CyQUANT assay, OVCAR3. The note with it: Homo sapiens, OVCAR-3, 168 h; CyQUANT cell counts, 7 days. It is filed as cell-based. Here is the method:
(§3) An imaging-based assay was used to investigate changes in cell number in OVCAR3 cells (CCNE1-amplified ovarian cancer cell line) and SKOV3 cells (non-amplified ovarian cancer cell line) treated with test compounds.
(§4) Cells were plated in 384 well plates (Perkin-Elmer 6057300) in RPMI-1640/10% FBS/1× L-Glu at 500 cells per well in 30 μL and incubated with test compound at 37° C. and 5% CO2 for 7 days. Cells were then stained using the CyQuant Direct Cell Proliferation Assay Kit (Thermo Cat #C7026) in accordance with the kit protocol. The stained cells were imaged using an Operetta high content imager to generate cell counts and IC50 values were calculated relative to DMSO controls.

The test system of data set [16] is pHH3 in T47D P1 human palbociclib resistant ER+ breast cancer xenograft. Briefly: Pharmacodynamic effect in T47D P1 palbociclib resistant ER+ breast xenograft model. The note with it: 3 days dosing, Western blot.
Description: A study was conducted to evaluate the in vivo pharmacodynamic response of monotherapy with a CDK2 inhibitor and combination therapy with a CDK2 inhibitor and palbociclib in a T47D P1 human palbociclib resistant ER+ breast cancer xenograft model.
T47D P1 cells were generated to be resistant to palbociclib through chronic treatment with palbociclib over the course of about three months with increasing concentrations up to 3 μM. The resulting cells (T47D P1) were then banked for use in subsequent experiments. T47D P1 cells were grown in phenol red free RPMI 1640 supplemented with 10% fetal bovine serum and 3 μM palbociclib. Cells were harvested with 0.25% trypsin and resuspended in PBS/phenol red free Matrigel (50/50).
10 Million T47D P1 cells were implanted orthotopically into the #3 mammary fat pad of female NSG mice. 0.5 mg 90 day release 17B-estradiol pellets from Innovative Research of America were implanted subcutaneously three days prior to cell implant. […] The time course of sample collection was as follows: (i) the test compound at 30 mg/kg groups with and without palbociclib treatment were collected at 2, 4 and 8 hours; and (ii) all other groups were collected at 2, 8 and 24 hours. pHH3 was evaluated by western blotting.
For the next data set, the system named is SKOV3 cells. Briefly: Cell proliferation CyQUANT assay, SKOV3. It is filed as cell-based. The note with it: Homo sapiens, SK-OV-3, 168 h; CyQUANT cell counts, 7 days. On the procedure: as §3, §4
The mark [17] stands for this setting: Compound 6 at 30 mg/kg orally twice daily.
The mark [18] stands for this setting: Compound 6 at 60 mg/kg orally twice daily.

CDK1:CCNB1, sequence (P06493 whole entry): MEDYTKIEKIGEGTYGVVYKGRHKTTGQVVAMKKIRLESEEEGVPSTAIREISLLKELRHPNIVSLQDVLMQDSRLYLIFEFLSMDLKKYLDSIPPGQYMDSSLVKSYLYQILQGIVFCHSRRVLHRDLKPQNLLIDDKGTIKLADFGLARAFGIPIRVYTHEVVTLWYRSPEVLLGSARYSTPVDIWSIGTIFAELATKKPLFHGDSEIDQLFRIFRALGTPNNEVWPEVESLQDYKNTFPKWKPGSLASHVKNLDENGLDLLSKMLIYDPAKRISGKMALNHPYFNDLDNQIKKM
CDK1:CCNB1, sequence (P14635 whole entry partner): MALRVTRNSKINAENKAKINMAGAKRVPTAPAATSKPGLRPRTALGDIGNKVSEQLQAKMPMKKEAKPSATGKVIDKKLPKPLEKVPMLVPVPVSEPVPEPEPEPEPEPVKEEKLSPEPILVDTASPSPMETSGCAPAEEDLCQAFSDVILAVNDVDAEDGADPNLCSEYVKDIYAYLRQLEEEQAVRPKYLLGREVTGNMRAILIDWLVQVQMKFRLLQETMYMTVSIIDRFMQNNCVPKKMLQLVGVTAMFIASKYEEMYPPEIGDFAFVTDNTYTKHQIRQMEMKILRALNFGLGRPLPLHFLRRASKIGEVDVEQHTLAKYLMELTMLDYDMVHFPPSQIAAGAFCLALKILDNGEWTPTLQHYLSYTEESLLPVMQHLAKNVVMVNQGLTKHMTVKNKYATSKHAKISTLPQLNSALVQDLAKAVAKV

Usually solubility stands for how much of the substance goes into solution per volume. What is called IC50 is the concentration that gives 50% inhibition. As to `CC[C@H](CO)Nc1nc(N[C@H]2CCN(S(=O)(=O)NC)C2)c2ncn(CC)c2n1` [Example 47, (S)-3-((9-ethyl-2-(((R)-1-hydroxybutan-2-yl)amino)-9H-purin-6-yl)amino)-N-methylpyrrolidine-1-sulfonamide], the solubility at 24 h in [1] is 253 µM (≈ 104 µg/mL). In data set [2], the “HLM CLint” value was 26 µL/min/mg. Besides, the microsomal CLint at 1 μM in [3] is < 1. The IC50 was 185 nM in the data set with OVCAR3 cells [4]; > 30000 nM in data set [5] (MCF-7 cells, 2 hours); 562 nM at CDK1:CCNB1; 705 nM with MCF-7 cells; 35 nM against CDK2:CCNE1; 7400 nM on CDK4:CCND1. The same molecule returned an IC50 in [6] of 152 nM.
In the case of `CCNS(=O)(=O)N1CC[C@H](Nc2nc(N[C@@H](CC)[C@@H](C)O)nc3c2ncn3CC)C1` [Compound 6, (S)—N-ethyl-3-((9-ethyl-2-(((2R,3S)-2-hydroxypentan-3-yl)amino)-9H-purin-6-yl)amino)pyrrolidine-1-sulfonamide], the pRB levels entry in [7] is “dose dependent inhibition of pRB”; in data set [11] it was “dose dependent inhibition of pRB”; in data set [13], “time dependent inhibition of pRB”; in data set [14], “time dependent inhibition of pRB”. In addition, the “% INHIBITION” value is listed as 31% in data set [8] (setting [17]), 94% in data set [8] (Compound 6 at 100 mg/kg orally twice daily) and >100% in data set [8] (Compound 6 at 150 mg/kg orally twice daily). Moreover, the “durability on monitoring for regrowth” value in [8] (Compound 6 at 150 mg/kg, compared to Compound 6 at 100 mg/kg group) is on record as “showed increased durability”. Besides, the “effect on cell cycle phase” value in the data set on OVCAR3 cells [9] is “increased the population of cells in the G0 and G1 phases”. In [10] (CTG-3283 xenograft, Compound 6 at 30 and 60 mg/kg monotherapy or combination with palbociclib), the tumor growth inhibition result is given as “lower inhibition of tumor growth”. Also, the “% INHIBITION (end of dosing)” value in [10] (setting [17]) was determined as 28%; in data set [10] (setting [18]), 21%; in data set [12] (setting [17]) it was 82%; in data set [12] (setting [18]), 87%. In addition, the durability of response result in data set [12] (Compound 6 at 60 mg/kg without palbociclib) is “more durable response”. In addition, the half-inhibitory concentration (IC50) in data set [5] was > 19300 nM; in the data set with OVCAR3 cells [15] it was 77 nM; with MCF-7 cells, 278 nM; in the data set on SKOV3 cells, 1960 nM. For the same molecule, the pHH3 levels entry in data set [16] is given as “time dependent inhibition of pHH3”.

For the origin of these results see patent US20250197425A1, “2,6,9-TRISUBSTITUTED PURINES” (ASTRAZENECA AB, priority 2022, published 2025).
